Results published in ChEMBL document CHEMBL3885881, “DrugMatrix”.

Species: Rattus norvegicus
Test: DrugMatrix - Regimen: Daily Repeat
Type: toxicity, organism-based, Sprague-Dawley
Design: regimen Daily Repeat, gender Male, age 6-8 weeks
Conditions: in vivo, po, route oral GAVAGE, […]; for ABSOLUTE BASOPHIL / ABSOLUTE EOSINOPHIL / ABSOLUTE LYMPHOCYTE / ABSOLUTE MONOCYTE / ABSOLUTE SEGMENTED NEUTROPHIL / BASOPHIL / EOSINOPHIL / ERYTHROCYTE COUNT / HEMATOCRIT / HEMOGLOBIN / LEUKOCYTE COUNT / LYMPHOCYTE / MEAN CORPUSCULAR HEMOGLOBIN / MEAN CORPUSCULAR HEMOGLOBIN CONCENTRATION / MONOCYTE / NEUTROPHIL / NUCLEATED RED BLOOD CELLS / PLATELET COUNT: tissue Blood; for ALANINE AMINOTRANSFERASE / ALBUMIN / ALKALINE PHOSPHATASE / ASPARTATE AMINOTRANSFERASE / BLOOD UREA NITROGEN / CARBON DIOXIDE / CHLORIDE / CHOLESTEROL / CREATINE PHOSPHOKINASE / CREATININE / GLUCOSE / LACTATE DEHYDROGENASE / LIPASE / PHOSPHORUS / POTASSIUM / SODIUM / TOTAL BILIRUBIN / TOTAL PROTEIN / URIC ACID: tissue Plasma
[1] = 0 mg/kg, 72 h, dose level Control, time 3 day
[2] = 0 mg/kg, 120 h, dose level Control, time 5 day
[3] = 250 mg/kg, 72 h, dose level Low, time 3 day

SMILES: Cc1noc(NS(=O)(=O)c2ccc(N)cc2)c1C [SULFISOXAZOLE]
- ABSOLUTE BASOPHIL [1]: 0 CELLS/uL
- ABSOLUTE EOSINOPHIL [1]: 0 CELLS/uL
- ABSOLUTE LYMPHOCYTE [1]: 11091.17 CELLS/uL
- ABSOLUTE MONOCYTE [1]: 172.17 CELLS/uL
- ABSOLUTE SEGMENTED NEUTROPHIL [1]: 1186.67 CELLS/uL
- BASOPHIL [1]: 0%
- EOSINOPHIL [1]: 0%
- ERYTHROCYTE COUNT [1]: 5.87 x10E6/uL
- HEMATOCRIT [1]: 36.87%
- HEMOGLOBIN [1]: 14.03 G/DL
- LEUKOCYTE COUNT [1]: 12.45 x10E3/uL
- LYMPHOCYTE [1]: 88.67%
- MEAN CORPUSCULAR HEMOGLOBIN [1]: 23.93 pg
- MEAN CORPUSCULAR HEMOGLOBIN CONCENTRATION [1]: 38.1 G/DL
- MONOCYTE [1]: 1.5%
- NEUTROPHIL [1]: 9.83%
- NUCLEATED RED BLOOD CELLS [1]: 0 /100WBC
- PLATELET COUNT [1]: 1150.33 x10E3/uL
- ALANINE AMINOTRANSFERASE [1]: 67.17 u/L
- ALBUMIN [1]: 4.03 G/DL
- ALKALINE PHOSPHATASE [1]: 462.5 u/L
- ASPARTATE AMINOTRANSFERASE [1]: 88 u/L
- BLOOD UREA NITROGEN [1]: 13.17 mg/dL
- CARBON DIOXIDE [1]: 29.33 mmol/L
- CHLORIDE [1]: 101 MEQ/L
- CHOLESTEROL [1]: 69.17 mg/dL
- CREATINE PHOSPHOKINASE [1]: 292.5 u/L
- CREATININE [1]: 0.17 mg/dL
- GLUCOSE [1]: 167.5 mg/dL
- LACTATE DEHYDROGENASE [1]: 198.5 u/L
- LIPASE [1]: 10.67 u/L
- PHOSPHORUS [1]: 11.73 mg/dL
- POTASSIUM [1]: 5.91 MEQ/L
- SODIUM [1]: 143.3 MEQ/L
- TOTAL BILIRUBIN [1]: 0.18 mg/dL
- TOTAL PROTEIN [1]: 5.7 G/DL
- URIC ACID [1]: 1.3 mg/dL
- ABSOLUTE BASOPHIL [2]: 0 CELLS/uL
- ABSOLUTE EOSINOPHIL [2]: 64.33 CELLS/uL
- ABSOLUTE LYMPHOCYTE [2]: 12494.67 CELLS/uL
- ABSOLUTE MONOCYTE [2]: 117 CELLS/uL
- ABSOLUTE SEGMENTED NEUTROPHIL [2]: 1340.67 CELLS/uL
- BASOPHIL [2]: 0%
- EOSINOPHIL [2]: 0.33%
- ERYTHROCYTE COUNT [2]: 5.82 x10E6/uL
- HEMATOCRIT [2]: 36.97%
- HEMOGLOBIN [2]: 14.18 G/DL
- LEUKOCYTE COUNT [2]: 14.02 x10E3/uL
- LYMPHOCYTE [2]: 89%
- MEAN CORPUSCULAR HEMOGLOBIN [2]: 24.42 pg
- MEAN CORPUSCULAR HEMOGLOBIN CONCENTRATION [2]: 38.4 G/DL
- MONOCYTE [2]: 0.83%
- NEUTROPHIL [2]: 9.83%
- NUCLEATED RED BLOOD CELLS [2]: 0 /100WBC
- PLATELET COUNT [2]: 1097.83 x10E3/uL
- ALANINE AMINOTRANSFERASE [2]: 58.83 u/L
- ALBUMIN [2]: 3.92 G/DL
- ALKALINE PHOSPHATASE [2]: 414.17 u/L
- ASPARTATE AMINOTRANSFERASE [2]: 89.17 u/L
- BLOOD UREA NITROGEN [2]: 16.83 mg/dL
- CARBON DIOXIDE [2]: 29.17 mmol/L
- CHLORIDE [2]: 100.33 MEQ/L
- CHOLESTEROL [2]: 54.5 mg/dL
- CREATINE PHOSPHOKINASE [2]: 386.17 u/L
- CREATININE [2]: 0.23 mg/dL
- GLUCOSE [2]: 184.17 mg/dL
- LACTATE DEHYDROGENASE [2]: 229.17 u/L
- LIPASE [2]: 10.83 u/L
- PHOSPHORUS [2]: 10.88 mg/dL
- POTASSIUM [2]: 5.97 MEQ/L
- SODIUM [2]: 142.2 MEQ/L
- TOTAL BILIRUBIN [2]: 0.12 mg/dL
- TOTAL PROTEIN [2]: 5.63 G/DL
- URIC ACID [2]: 1.55 mg/dL
- ABSOLUTE BASOPHIL [3]: 0 CELLS/uL
- ABSOLUTE EOSINOPHIL [3]: 53.33 CELLS/uL
- ABSOLUTE LYMPHOCYTE [3]: 12619.33 CELLS/uL
- ABSOLUTE MONOCYTE [3]: 200.67 CELLS/uL
- ABSOLUTE SEGMENTED NEUTROPHIL [3]: 1193.33 CELLS/uL
- BASOPHIL [3]: 0%
- EOSINOPHIL [3]: 0.33%
- ERYTHROCYTE COUNT [3]: 5.71 x10E6/uL
- HEMATOCRIT [3]: 36.37%
- HEMOGLOBIN [3]: 14.1 G/DL
- LEUKOCYTE COUNT [3]: 14.07 x10E3/uL
- LYMPHOCYTE [3]: 89.67%
- MEAN CORPUSCULAR HEMOGLOBIN [3]: 24.7 pg
- MEAN CORPUSCULAR HEMOGLOBIN CONCENTRATION [3]: 38.77 G/DL
- MONOCYTE [3]: 1.33%
- NEUTROPHIL [3]: 8.67%
- NUCLEATED RED BLOOD CELLS [3]: 0 /100WBC
- PLATELET COUNT [3]: 1238.67 x10E3/uL
- ALANINE AMINOTRANSFERASE [3]: 58.33 u/L
- ALBUMIN [3]: 4.03 G/DL
- ALKALINE PHOSPHATASE [3]: 426.33 u/L
- ASPARTATE AMINOTRANSFERASE [3]: 80.67 u/L
- BLOOD UREA NITROGEN [3]: 15 mg/dL
- CARBON DIOXIDE [3]: 27.33 mmol/L
- CHLORIDE [3]: 102.67 MEQ/L
- CHOLESTEROL [3]: 67.67 mg/dL
- CREATINE PHOSPHOKINASE [3]: 283.67 u/L
- CREATININE [3]: 0.16 mg/dL
- GLUCOSE [3]: 171.67 mg/dL
- LACTATE DEHYDROGENASE [3]: 137.33 u/L
- LIPASE [3]: 9.67 u/L
- PHOSPHORUS [3]: 11.9 mg/dL
- POTASSIUM [3]: 6.14 MEQ/L
- SODIUM [3]: 145.13 MEQ/L
- TOTAL BILIRUBIN [3]: 0.13 mg/dL
- TOTAL PROTEIN [3]: 5.6 G/DL
